pKi: −log10 of the molar value. Calls of active or inactive are those of the source. The rule behind the calls is not given here.
Tests used:
Carbonic anhydrase 1 = Carbonic anhydrase 1 (Homo sapiens, UniProt P00915)
Description: Inhibition of human CA1 preincubated for 15 mins by phenol red dye based stopped flow CO2 hydration assay

Carbonic anhydrase 9 = Carbonic anhydrase 9 (Homo sapiens, UniProt Q16790)
Description: Inhibition of human CA9 preincubated for 15 mins by phenol red dye based stopped flow CO2 hydration assay

Carbonic anhydrase 12 = Carbonic anhydrase 12 (Homo sapiens, UniProt O43570)
Description: Inhibition of human CA12 preincubated for 15 mins by phenol red dye based stopped flow CO2 hydration assay

Oryctolagus cuniculus [1] = test: Antiglaucoma activity in New Zealand albino rabbit assessed as reduction in carbomer-induced intraocular pressure administered topically as eye drops measured at 60 to 120 mins post administration by pneumotonometer-analysis; type: functional; details: time 60-120 min
Oryctolagus cuniculus [2] = test: Antiglaucoma activity in New Zealand albino rabbit assessed as reduction in intraocular pressure administered topically as eye drops measured after 4 hrs by pneumotonometer-analysis; type: functional
Oryctolagus cuniculus [3] = test: Antiglaucoma activity in New Zealand albino rabbit assessed as reduction in carbomer-induced intraocular pressure administered topically as eye drops measured at 240 mins post-drug administration by pneumotonometer-analysis; type: functional; details: 4 h
Oryctolagus cuniculus [4] = test: Antiglaucoma activity in New Zealand albino rabbit assessed as reduction in carbomer-induced intraocular pressure administered topically as eye drops measured at 60 mins post-drug administration by pneumotonometer-analysis; type: functional; details: 1 h

Sequence of Carbonic anhydrase 1 (P00915 whole entry): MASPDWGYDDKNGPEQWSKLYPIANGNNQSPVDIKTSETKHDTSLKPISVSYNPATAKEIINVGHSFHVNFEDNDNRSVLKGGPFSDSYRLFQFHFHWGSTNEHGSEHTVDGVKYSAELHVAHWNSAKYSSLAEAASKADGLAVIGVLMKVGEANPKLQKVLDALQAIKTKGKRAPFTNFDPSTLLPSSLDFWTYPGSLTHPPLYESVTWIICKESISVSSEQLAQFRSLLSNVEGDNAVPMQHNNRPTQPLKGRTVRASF
Sequence of Carbonic anhydrase 12 (O43570 whole entry): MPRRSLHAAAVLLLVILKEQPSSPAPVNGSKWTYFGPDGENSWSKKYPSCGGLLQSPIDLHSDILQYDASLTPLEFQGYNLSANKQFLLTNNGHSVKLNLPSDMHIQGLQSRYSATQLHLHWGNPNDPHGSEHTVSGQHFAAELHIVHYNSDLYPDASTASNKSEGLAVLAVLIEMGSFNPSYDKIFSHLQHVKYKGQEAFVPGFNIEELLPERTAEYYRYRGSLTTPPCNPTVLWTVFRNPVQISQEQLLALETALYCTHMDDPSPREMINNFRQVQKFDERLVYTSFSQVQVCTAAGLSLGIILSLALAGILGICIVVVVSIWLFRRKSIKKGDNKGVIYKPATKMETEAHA

SMILES | pKi (Carbonic anhydrase 1) | pKi (Carbonic anhydrase 9) | pKi (Carbonic anhydrase 12) | Activity (Oryctolagus cuniculus [1]) | Activity (Oryctolagus cuniculus [2]) | Activity (Oryctolagus cuniculus [3]) [mmHg] | Activity (Oryctolagus cuniculus [4]) [mmHg]
COC(=O)C(CC(C)C)NC(=O)Nc1ccc(S(N)(=O)=O)cc1 (stereo not given) | 6.65 | 6.03 | 6.23 | – | – | – | –
CC(C)NC(=O)Nc1cccc(S(N)(=O)=O)c1 | – | 5.66 | 6.21 | – | – | – | –
NS(=O)(=O)c1cccc(NC(=O)NCCc2ccccc2)c1 | 6.53 | 5.88 | 6.31 | – | – | – | –
CC(C)N(C(=O)Nc1cccc(S(N)(=O)=O)c1)C(C)C | – | 5.68 | – | – | – | – | –
COC(=O)C(CCSC)NC(=O)Nc1cccc(S(N)(=O)=O)c1 (stereo not given) | 5.76 | 5.86 | 6.37 | – | – | – | –
CC(C)CN(CC(C)C)C(=O)Nc1cccc(S(N)(=O)=O)c1 | – | 5.75 | – | – | – | – | –
COC(=O)CC(NC(=O)Nc1cccc(S(N)(=O)=O)c1)C(=O)OC (stereo not given) | 5.08 | 6.07 | – | – | – | – | –
COC(=O)C(CC(C)C)NC(=O)Nc1cccc(S(N)(=O)=O)c1 (stereo not given) | 5.28 | 6.08 | 6.23 | – | – | – | –
CCC(C)NC(=O)Nc1cccc(S(N)(=O)=O)c1 (stereo not given) | 7.16 | 5.67 | 6.22 | – | – | – | –
CCC(C)NC(=O)Nc1ccc(S(N)(=O)=O)cc1 (stereo not given) | 6.17 | 6.30 | 6.20 | – | – | – | –
CCN(CC)C(=O)Nc1cccc(S(N)(=O)=O)c1 | 5.54 | 5.76 | 6.43 | – | – | – | –
COC(=O)C(Cc1ccccc1)NC(=O)Nc1cccc(S(N)(=O)=O)c1 (stereo not given) | 6.09 | 6.03 | 6.56 | 16 mmHg | Active | – | –
NS(=O)(=O)c1cccc(NC(=O)Nc2cccc(C(F)(F)F)c2)c1 | 5.69 | 5.80 | 6.31 | – | – | – | –
NS(=O)(=O)c1ccc(NC(=O)NCC(=O)NCC(=O)O)cc1 | 5.12 | 5.80 | 6.37 | Active | Active | 19 | –
CCN[C@H]1C[C@H](C)S(=O)(=O)c2sc(S(N)(=O)=O)cc21 [DORZOLAMIDE] | – | – | – | – | 24 mmHg | – | –
COC(=O)CNC(=O)Nc1cccc(S(N)(=O)=O)c1 | 5.22 | 6.08 | – | – | – | – | –
CCCCCCN(CCCCCC)C(=O)Nc1cccc(S(N)(=O)=O)c1 | – | 5.68 | – | – | – | – | –
CC(C)NC(=O)Nc1ccc(S(N)(=O)=O)cc1 | 6.36 | 6.19 | 6.23 | – | – | – | –
CN(CCc1ccccc1)C(=O)Nc1cccc(S(N)(=O)=O)c1 | – | 5.93 | – | – | – | – | –
NS(=O)(=O)c1cccc(NC(=O)Nc2ccccc2)c1 | 6.35 | 5.74 | 6.45 | – | – | – | –
COC(=O)[C@H](Cc1ccccc1)NC(=O)Nc1ccc(S(N)(=O)=O)cc1 | 7.21 | 6.90 | 7.37 | – | 27 mmHg | – | 36
NS(=O)(=O)c1cccc(NC(=O)Nc2ccccc2F)c1 | 6.13 | 5.83 | 6.29 | – | – | – | –
COC(=O)CCC(NC(=O)Nc1ccc(S(N)(=O)=O)cc1)C(=O)OC (stereo not given) | 7.21 | 6.22 | 6.14 | – | – | – | –
COC(=O)CCCNC(=O)Nc1cccc(S(N)(=O)=O)c1 | 5.08 | 6.13 | 6.31 | – | – | – | –
COC(=O)CNC(=O)CNC(=O)Nc1cccc(S(N)(=O)=O)c1 | 5.14 | 6.16 | 6.46 | – | – | – | –
CN(Cc1ccccc1)C(=O)Nc1cccc(S(N)(=O)=O)c1 | – | 5.84 | – | 11 mmHg | Active | – | –
NS(=O)(=O)c1cccc(NC(=O)N2CCCCC2)c1 | 6.75 | 6.27 | 6.56 | – | – | – | –
CN(C)C(=O)Nc1ccc(S(N)(=O)=O)cc1 | 6.32 | 5.86 | 6.15 | – | – | – | –
CCCN(CCC)C(=O)Nc1cccc(S(N)(=O)=O)c1 | – | 5.66 | – | – | – | – | –
COC(=O)CNC(=O)Nc1ccc(S(N)(=O)=O)cc1 | – | 5.72 | – | – | – | – | –

Source: ChEMBL document CHEMBL5042507, “One-Pot Procedure for the Synthesis of Asymmetric Substituted Ureido Benzene Sulfonamides as Effective Inhibitors of Carbonic Anhydrase Enzymes” (J Med Chem, 2022)
